According to US20090131409A1, “1,4,5,6,7,8-HEXAHYDRO -PYRROLO[2,3-d]AZEPINES AND -IMIDAZO[4,5-d]AZEPINES AS MODULATORS OF NUCLEAR RECEPTOR ACTIVITY” (Wyeth, priority 2007, published 2009):

Biological target: T1, Gal4/hFXR fusion protein (Homo sapiens, UniProt Q96RI1)
T1 sequence (Q96RI1 262-486 limits assumed): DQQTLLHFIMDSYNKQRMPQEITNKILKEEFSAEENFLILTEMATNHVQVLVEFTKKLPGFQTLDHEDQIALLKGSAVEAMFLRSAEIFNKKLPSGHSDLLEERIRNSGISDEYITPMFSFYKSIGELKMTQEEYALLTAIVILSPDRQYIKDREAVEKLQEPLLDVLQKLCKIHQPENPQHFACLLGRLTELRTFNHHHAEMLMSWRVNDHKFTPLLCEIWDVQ
Experiment: Gal4/hFXR fusion protein agonist activity in human 293 cells (luciferase reporter)

SMILES | EC50 [µM]
CC(C)OC(=O)C1CN(C(=O)c2cccc(C(F)(F)F)c2)CC(C)(C)c2cc(C#N)[nH]c21 (stereo not drawn) [iso-propyl 2-cyano-4,4-dimethyl-6-[3-(trifluoromethyl)benzoyl]-1,4,5,6,7,8-hexahydropyrrolo[2,3-d]azepine-8-carboxylate] | 2.7
CC(C)OC(=O)C1CN(C(=O)c2ccc(C#N)cc2)CC(C)(C)c2cc(C#N)[nH]c21 (stereo not drawn) [iso-propyl 2-cyano-6-(4-cyanobenzoyl)-4,4-dimethyl-1,4,5,6,7,8-hexahydropyrrolo[2,3-d]azepine-8-carboxylate] | 5.7
CC(C)OC(=O)C1CN(C(=O)C2CCCCC2)CC(C)(C)c2cc(C#N)[nH]c21 (stereo not drawn) [iso-propyl 2-cyano-6-(cyclohexylcarbonyl)-4,4-dimethyl-1,4,5,6,7,8-hexahydropyrrolo[2,3-d]azepine-8-carboxylate] | 1.9
CC(C)OC(=O)C1CN(C(=O)c2cccc(Cl)c2)CC(C)(C)c2cc(C#N)[nH]c21 (stereo not drawn) [iso-propyl 6-(3-chlorobenzoyl)-2-cyano-4,4-dimethyl-1,4,5,6,7,8-hexahydropyrrolo[2,3-d]azepine-8-carboxylate] | 1.3
CC(C)OC(=O)C1CN(C(=O)c2ccc(Cl)cc2)CC(C)(C)c2cc(C#N)[nH]c21 (stereo not drawn) [iso-propyl 6-(4-chlorobenzoyl)-2-cyano-4,4-dimethyl-1,4,5,6,7,8-hexahydropyrrolo[2,3-d]azepine-8-carboxylate] | 4.1

The remaining lines, values ahead:

EC50 [µM] | SMILES
3.3 | CC(C)OC(=O)C1CN(C(=O)C2CCOCC2)CC(C)(C)c2cc(C#N)[nH]c21 (stereo not drawn) [isopropyl 2-cyano-4,4-dimethyl-6-(tetrahydro-2H-pyran-4-ylcarbonyl)-1,4,5,6,7,8-hexahydropyrrolo[2,3-d]azepine-8-carboxylate]
0.28 | CC(C)OC(=O)C1CN(C(=O)c2ccc(F)c(F)c2)CC(C)(C)c2cc(C#N)[nH]c21 (stereo not drawn) [isopropyl 2-cyano-6-(3,4-difluorobenzoyl)-4,4-dimethyl-1,4,5,6,7,8-hexahydropyrrolo[2,3-d]azepine-8-carboxylate]
1.3 | CC(C)OC(=O)C1CN(C(=O)c2cccc(F)c2)CC(C)(C)c2cc(C#N)[nH]c21 (stereo not drawn) [isopropyl 2-cyano-6-(3-fluorobenzoyl)-4,4-dimethyl-1,4,5,6,7,8-hexahydropyrrolo[2,3-d]azepine-8-carboxylate]
0.64 | CC(C)OC(=O)C1CN(C(=O)c2ccc(F)cc2)CC(C)(C)c2cc(C#N)[nH]c21 (stereo not drawn) [isopropyl 2-cyano-6-(4-fluorobenzoyl)-4,4-dimethyl-1,4,5,6,7,8-hexahydropyrrolo[2,3-d]azepine-8-carboxylate]
